Measurements published in patent US12226399B2, “Oral aqueous suspension formulation comprising carbamate compound” (SK BIOPHARMACEUTICALS CO., LTD., priority 2021, dated 2025).

Experiment: Visual wetting of cenobamate API on wetting agent solution
Assay type: physicochemical
Conditions: in the presence of poloxamer 188; time for cenobamate to fall below the surface
Procedure: Poloxamer 188 was evaluated at different concentrations for sedimentation volume, dispensability and wettability of cenobamate containing dispersion in a neat citrate or phosphate buffer at pH 3 to 7. Approximately one hundred milligrams (100 mg) of cenobamate was dispersed in 10 mL of the poloxamer liquid at the concentration of 0.10, 0.50, 1.00, and 1.50 mg/mL in phosphate buffer pH 4.2 and the dispersions were evaluated for sedimentation volume, re-dispersibility, and wettability. Additionally, separate samples containing poloxamer 188 at the concertation of 0.1 mg/ml were also prepared in citrate buffer at different levels of pH (pH 3.5, 4.2 and 5.2), and evaluated in the same manner.
The volume of the sedimentation layer is an indicator to the amount of spacing between the particles in the sediment layer. Physical observations indicated these dispersions settled rapidly but formed a loosely packed layer which was very easily re-dispersed after inversion and/or shaking (FIGS. 1 and 2).
The following intended effects that were observed are immediate wetting of most of the material after adding cenobamate to the poloxamer solution, rapid and loose initial sedimentation within first 30 minutes to 1 hour as measured by ratio of sediment volume to total volume, no caking and efficient re-dispersion, rapidly dispersing material after shaking the settled sample for 10 seconds.

Compound: NC(=O)O[C@@H](Cn1ncnn1)c1ccccc1Cl [cenobamate, carbamic acid (R)-1-(2-chlorophenyl)-2-tetrazol-2-yl-ethyl ester]
- Wetting of cenobamate: good wetting
